Test in all cases: biochemical
What all share (parameters): DiscoverX kinase panel, active-site competition binding (KINOMEscan type), percent of control at one concentration
Holding throughout (conditions): competition binding, percent of control

For assay [1], the target named is BRAF (Homo sapiens, UniProt P15056).
Assay [2] has as its target DAPK2 (Homo sapiens, UniProt Q9UIK4).
The target in assay [3] is RET(V804M) (Homo sapiens, UniProt P07949, V804M).
Assay [4] deals with ERBB4 (Homo sapiens, UniProt Q15303).
In assay [5] the target is ALK(L1196M) (Homo sapiens, UniProt Q9UM73, L1196M).
For assay [6], the target named is CDK7 (Homo sapiens, UniProt P50613).
The target in assay [7] is MYLK4 (Homo sapiens, UniProt Q86YV6).
In assay [8] the target is T1, LZK (Homo sapiens, UniProt O43283).
T1 construct: gene MAP3K13

The target in assay [9] is T2, MKK7 (Homo sapiens, UniProt O14733).
T2 construct: gene MAP2K7

Assay [10] deals with T3, ABL1(H396P)-phosphorylated (Homo sapiens, UniProt P00519, H396P).
T3 construct: phosphorylated

For assay [11], the target named is MERTK (Homo sapiens, UniProt Q12866).
Assay [12] addresses BUB1 (Homo sapiens, UniProt O43683).
The target in assay [13] is CLK3 (Homo sapiens, UniProt P49761).
Assay [14] concerns the target T4, PRKR (Homo sapiens, UniProt P19525).
T4 construct: gene EIF2AK2

Assay [15] deals with T5, RSK1(Kin.Dom.1-N-terminal) (Homo sapiens, UniProt Q15418).
T5 construct: gene RPS6KA1; Kin.Dom.1-N-terminal

Assay [16] deals with BRAF(V600E) (Homo sapiens, UniProt P15056, V600E).
For assay [17], the target named is CAMK2G (Homo sapiens, UniProt Q13555).
Assay [18] addresses T6, ABL1(Q252H)-nonphosphorylated (Homo sapiens, UniProt P00519, Q252H).
T6 construct: nonphosphorylated

The target of assay [19] is CDK8 (Homo sapiens, UniProt P49336).
Assay [20] addresses T7, PIK4CB (Homo sapiens, UniProt Q9UBF8).
T7 construct: gene PI4KB

In assay [21] the target is CAMK1 (Homo sapiens, UniProt Q14012).

Chain of CDK8 (P49336 whole entry): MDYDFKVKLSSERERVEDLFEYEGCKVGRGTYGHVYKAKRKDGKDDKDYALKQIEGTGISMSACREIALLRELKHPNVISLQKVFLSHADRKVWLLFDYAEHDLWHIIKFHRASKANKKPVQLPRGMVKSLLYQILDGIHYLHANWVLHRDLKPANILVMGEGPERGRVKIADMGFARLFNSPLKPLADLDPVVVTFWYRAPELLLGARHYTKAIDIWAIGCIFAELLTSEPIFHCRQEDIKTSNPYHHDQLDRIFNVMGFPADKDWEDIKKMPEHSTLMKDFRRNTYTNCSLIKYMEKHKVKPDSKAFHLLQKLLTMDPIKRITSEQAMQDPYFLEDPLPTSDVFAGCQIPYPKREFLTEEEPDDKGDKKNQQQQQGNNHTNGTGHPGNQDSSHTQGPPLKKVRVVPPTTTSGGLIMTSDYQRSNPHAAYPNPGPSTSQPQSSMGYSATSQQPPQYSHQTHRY
Chain of MERTK (Q12866 whole entry): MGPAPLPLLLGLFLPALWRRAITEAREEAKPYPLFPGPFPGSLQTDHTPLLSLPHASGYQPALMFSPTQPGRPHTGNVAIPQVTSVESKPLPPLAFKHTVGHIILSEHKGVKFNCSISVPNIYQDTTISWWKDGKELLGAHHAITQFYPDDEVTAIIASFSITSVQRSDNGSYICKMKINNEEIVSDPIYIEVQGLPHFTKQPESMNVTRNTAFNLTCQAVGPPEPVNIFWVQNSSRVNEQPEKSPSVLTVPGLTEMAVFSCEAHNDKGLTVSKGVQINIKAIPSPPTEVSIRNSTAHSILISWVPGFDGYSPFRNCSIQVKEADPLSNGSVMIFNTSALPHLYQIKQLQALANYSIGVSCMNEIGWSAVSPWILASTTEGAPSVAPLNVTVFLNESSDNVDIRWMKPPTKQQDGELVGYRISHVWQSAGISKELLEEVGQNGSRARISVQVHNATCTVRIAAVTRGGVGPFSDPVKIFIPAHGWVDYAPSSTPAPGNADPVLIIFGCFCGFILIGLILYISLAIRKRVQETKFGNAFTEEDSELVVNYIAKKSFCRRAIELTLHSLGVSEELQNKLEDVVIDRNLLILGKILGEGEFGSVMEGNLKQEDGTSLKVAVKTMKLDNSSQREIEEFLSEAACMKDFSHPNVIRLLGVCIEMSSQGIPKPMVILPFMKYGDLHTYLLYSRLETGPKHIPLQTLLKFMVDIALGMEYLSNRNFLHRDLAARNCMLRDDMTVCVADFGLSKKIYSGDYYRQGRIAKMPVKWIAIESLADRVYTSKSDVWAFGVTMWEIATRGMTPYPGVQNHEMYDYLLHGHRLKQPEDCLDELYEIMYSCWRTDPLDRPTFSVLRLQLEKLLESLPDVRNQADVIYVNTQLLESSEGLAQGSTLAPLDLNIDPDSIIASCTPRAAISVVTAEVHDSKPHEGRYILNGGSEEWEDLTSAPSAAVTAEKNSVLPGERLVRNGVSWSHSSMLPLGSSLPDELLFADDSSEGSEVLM
Chain of BUB1 (O43683 whole entry): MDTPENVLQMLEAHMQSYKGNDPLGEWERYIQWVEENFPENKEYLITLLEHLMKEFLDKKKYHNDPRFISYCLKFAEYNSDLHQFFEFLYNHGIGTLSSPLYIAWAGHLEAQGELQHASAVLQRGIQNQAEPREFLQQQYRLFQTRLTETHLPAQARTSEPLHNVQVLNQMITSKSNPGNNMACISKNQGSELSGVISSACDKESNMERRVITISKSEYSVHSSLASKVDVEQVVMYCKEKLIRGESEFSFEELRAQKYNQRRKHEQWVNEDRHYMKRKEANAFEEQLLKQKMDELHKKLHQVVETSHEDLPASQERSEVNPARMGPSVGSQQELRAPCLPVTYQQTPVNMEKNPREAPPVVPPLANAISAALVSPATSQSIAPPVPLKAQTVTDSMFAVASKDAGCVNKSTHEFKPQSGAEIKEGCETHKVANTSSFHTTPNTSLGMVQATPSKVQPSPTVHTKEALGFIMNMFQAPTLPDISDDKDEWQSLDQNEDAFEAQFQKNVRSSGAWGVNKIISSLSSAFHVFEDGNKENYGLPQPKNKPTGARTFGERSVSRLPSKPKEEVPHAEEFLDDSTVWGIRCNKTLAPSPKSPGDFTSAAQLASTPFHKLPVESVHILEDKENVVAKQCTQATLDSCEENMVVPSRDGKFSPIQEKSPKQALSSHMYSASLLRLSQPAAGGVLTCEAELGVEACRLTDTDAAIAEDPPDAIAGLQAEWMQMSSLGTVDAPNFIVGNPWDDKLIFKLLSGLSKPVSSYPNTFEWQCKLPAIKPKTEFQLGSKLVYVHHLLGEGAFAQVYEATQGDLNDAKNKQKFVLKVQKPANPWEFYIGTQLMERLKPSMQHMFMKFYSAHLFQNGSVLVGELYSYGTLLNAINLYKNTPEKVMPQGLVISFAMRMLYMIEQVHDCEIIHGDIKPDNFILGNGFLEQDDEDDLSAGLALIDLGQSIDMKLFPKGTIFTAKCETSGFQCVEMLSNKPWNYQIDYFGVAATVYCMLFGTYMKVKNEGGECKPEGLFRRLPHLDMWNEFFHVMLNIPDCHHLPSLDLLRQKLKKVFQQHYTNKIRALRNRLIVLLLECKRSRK
T2 sequence (O14733 whole entry): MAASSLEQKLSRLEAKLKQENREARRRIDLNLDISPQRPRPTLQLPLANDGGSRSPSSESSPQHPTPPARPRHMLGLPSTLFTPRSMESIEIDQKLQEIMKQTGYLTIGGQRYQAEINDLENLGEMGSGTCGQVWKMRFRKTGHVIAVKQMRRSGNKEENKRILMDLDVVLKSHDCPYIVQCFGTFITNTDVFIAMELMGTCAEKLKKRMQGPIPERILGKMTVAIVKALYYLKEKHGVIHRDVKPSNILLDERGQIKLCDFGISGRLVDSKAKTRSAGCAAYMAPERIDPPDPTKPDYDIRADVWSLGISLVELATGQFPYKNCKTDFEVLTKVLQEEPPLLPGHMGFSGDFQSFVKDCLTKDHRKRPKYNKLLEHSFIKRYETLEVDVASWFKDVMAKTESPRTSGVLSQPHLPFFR
Chain of ERBB4 (Q15303 whole entry): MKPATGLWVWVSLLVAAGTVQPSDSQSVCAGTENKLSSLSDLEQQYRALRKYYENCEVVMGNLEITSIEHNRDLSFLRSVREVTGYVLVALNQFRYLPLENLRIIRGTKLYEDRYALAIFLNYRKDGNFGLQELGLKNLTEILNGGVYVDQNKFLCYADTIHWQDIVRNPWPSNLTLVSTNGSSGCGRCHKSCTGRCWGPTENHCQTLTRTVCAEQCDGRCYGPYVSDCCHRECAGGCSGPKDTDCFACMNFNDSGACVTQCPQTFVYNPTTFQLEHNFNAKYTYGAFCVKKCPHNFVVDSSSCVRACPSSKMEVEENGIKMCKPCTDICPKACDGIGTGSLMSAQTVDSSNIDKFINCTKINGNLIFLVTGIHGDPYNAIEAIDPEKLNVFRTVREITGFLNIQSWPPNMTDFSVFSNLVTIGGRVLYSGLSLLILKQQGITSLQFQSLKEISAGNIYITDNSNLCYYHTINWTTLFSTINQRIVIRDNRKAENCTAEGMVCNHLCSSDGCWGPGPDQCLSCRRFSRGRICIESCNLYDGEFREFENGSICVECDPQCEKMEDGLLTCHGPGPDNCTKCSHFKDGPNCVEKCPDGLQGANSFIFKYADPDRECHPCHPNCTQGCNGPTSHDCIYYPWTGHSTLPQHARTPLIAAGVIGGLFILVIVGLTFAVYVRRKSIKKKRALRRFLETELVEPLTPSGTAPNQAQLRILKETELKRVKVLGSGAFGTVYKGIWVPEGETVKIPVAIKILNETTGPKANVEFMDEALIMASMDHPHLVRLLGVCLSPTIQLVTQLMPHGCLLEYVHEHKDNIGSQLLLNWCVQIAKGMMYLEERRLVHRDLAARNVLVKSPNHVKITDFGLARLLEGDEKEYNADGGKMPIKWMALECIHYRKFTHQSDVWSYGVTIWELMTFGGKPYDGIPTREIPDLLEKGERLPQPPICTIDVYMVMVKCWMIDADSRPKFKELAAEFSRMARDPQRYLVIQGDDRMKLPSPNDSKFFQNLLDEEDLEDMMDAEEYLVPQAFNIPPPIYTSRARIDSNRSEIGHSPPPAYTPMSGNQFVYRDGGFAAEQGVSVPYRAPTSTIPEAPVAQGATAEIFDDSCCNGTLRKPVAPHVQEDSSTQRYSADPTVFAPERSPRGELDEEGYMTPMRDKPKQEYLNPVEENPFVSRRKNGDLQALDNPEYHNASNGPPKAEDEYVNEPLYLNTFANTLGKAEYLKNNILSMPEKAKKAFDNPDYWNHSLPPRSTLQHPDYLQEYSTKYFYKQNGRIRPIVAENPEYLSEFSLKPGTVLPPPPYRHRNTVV
Chain of CAMK2G (Q13555 whole entry): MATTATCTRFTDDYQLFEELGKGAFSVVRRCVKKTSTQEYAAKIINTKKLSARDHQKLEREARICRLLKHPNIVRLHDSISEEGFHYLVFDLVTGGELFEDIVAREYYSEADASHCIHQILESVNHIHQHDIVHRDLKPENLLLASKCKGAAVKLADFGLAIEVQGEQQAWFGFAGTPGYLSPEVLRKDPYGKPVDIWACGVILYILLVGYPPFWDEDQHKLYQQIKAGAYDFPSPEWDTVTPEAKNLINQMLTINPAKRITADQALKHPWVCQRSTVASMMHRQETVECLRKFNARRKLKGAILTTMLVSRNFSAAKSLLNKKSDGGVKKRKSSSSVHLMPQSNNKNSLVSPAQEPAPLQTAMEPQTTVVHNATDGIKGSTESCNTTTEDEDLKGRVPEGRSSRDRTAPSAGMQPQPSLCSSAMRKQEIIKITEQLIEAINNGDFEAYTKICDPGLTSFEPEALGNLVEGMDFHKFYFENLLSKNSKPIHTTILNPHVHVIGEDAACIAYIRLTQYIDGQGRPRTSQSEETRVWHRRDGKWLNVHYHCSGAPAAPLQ

As for `COc1cc2c(cn1)N(C)C(=O)[C@@H](NC(=O)c1nc3n(n1)[C@H](c1ccccc1)CC3)CC2` [GNE684, (S)-N-((S)-7-methoxy-1-methyl-2-oxo-2,3,4,5-tetrahydro-1H-pyrido[3,4-b]azepin-3-yl)-5-phenyl-6,7-dihydro-5H-pyrrolo[1,2-b][1,2,4]triazole-2-carboxamide], the remaining binding at 10 µM came to 98% in assay [1]; 74% in assay [2]; 100% in assay [3]; 85% in assay [4]; 78% in [5]; 75% in assay [6]. For the same molecule, the remaining binding at 10 µM in assay [7] was determined as 100%; in assay [8], 98%; in assay [9], 98%; in [10] it was 92%; in assay [11], 90%; in assay [12] it was 100%. Further, the remaining binding at 10 µM in assay [13] was 97%; in assay [14] it was 100%; in assay [15], 98%; in [16] it was 100%; in assay [17], 100%; in [18], 68%. In addition, the remaining binding at 10 µM in assay [19] worked out at 97%; in [20], 98%; in [21], 91%.
